Biological target: T1, mGlyT-1b (Mus musculus, UniProt P28571)
T1 construct: host or cells: Flp-in-CHO cells
T1 sequence (P28571 1-651 isoform P28571-2): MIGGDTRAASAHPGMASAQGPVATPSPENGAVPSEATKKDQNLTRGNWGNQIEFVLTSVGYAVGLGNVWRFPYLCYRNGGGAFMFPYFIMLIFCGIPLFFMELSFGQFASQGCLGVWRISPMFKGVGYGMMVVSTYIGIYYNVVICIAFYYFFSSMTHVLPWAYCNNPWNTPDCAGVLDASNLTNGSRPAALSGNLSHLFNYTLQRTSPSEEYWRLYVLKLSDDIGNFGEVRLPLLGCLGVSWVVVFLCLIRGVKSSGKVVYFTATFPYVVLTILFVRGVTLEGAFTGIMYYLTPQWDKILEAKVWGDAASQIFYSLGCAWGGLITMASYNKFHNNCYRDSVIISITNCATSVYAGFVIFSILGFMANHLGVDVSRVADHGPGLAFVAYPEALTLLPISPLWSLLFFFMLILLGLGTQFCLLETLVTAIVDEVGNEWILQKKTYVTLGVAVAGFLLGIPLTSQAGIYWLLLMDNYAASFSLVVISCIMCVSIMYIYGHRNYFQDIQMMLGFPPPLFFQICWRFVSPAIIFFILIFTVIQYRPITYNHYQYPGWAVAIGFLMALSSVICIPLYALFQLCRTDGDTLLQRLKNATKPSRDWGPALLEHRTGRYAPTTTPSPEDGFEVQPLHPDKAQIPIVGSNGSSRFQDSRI
Assay: Glycine Uptake Inhibition Assay (mGlyT-1b)
Assay type: cell-based
Conditions: [3H]-glycine uptake inhibition at GlyT-1, Flp-in-CHO cells transfected with mGlyT-1b cDNA
Procedure: DMEM complete medium: Nutrient mixture F-12 (Gibco Life-technologies), fetal bovine serum (FBS) 5%, (Gibco life technologies), Penicillin/Streptomycin 1% (Gibco life technologies), Hygromycin 0.6 mg/ml (Gibco life technologies), Glutamine 1 mM Gibco life technologies)
Uptake buffer (UB): 150 mM NaCl, 10 mM Hepes-Tris, pH 7.4, 1 mM CaCl2, 2.5 mM KCl, 2.5 mM MgSO4, 10 mM (+) D-glucose. Flp-in™-CHO (Invitrogen Cat n^o R758-07) cells stably transfected with mGlyT1b cDNA.
Glycine Uptake Inhibition Assay (mGlyT-1b)
On day 1 mammalian cells, (Flp-in™-CHO), transfected with mGlyT-1b cDNA, were plated at the density of 40,000 cells/well in complete F-12 medium, without hygromycin in 96-well culture plates. On day 2, the medium was aspirated, and the cells were washed twice with uptake buffer (UB). The cells were then incubated for 20 min at 22° C. with either (i) no potential competitor, (ii) 10 mM non-radioactive glycine, (iii) a concentration of a potential inhibitor. A range of concentrations of the potential inhibitor was used to generate data for calculating the concentration of inhibitor resulting in 50% of the effect (e.g. IC50, the concentration of the competitor inhibiting glycine uptake of 50%).
A solution was then immediately added containing [^3H]-glycine 60 nM (11-16 Ci/mmol) and 25 μM non-radioactive glycine. The plates were incubated with gentle shaking, and the reaction was stopped by aspiration of the mixture and washing (three times) with ice-cold UB. The cells were lysed with scintillation liquid, shaken 3 hours and the radioactivity in the cells counted using a scintillation counter.

Compound | IC50
CNS(=O)(=O)c1ccc(OCC(C)C)c(C(=O)N2CCN(c3ccc(C(F)(F)F)cc3)CC2)c1 [compound 524] | 12 nM
CCS(=O)(=O)c1ccc(OC(C)C)c(C(=O)N2CCN(c3ccc(C(F)(F)F)cc3F)CC2)c1 [compound 393] | 32 nM
O=C(c1cc([N+](=O)[O-])ccc1OC1CCC1)N1CCN(c2ccc(C(F)(F)F)cc2)CC1 [Example 74, (2-Cyclobutoxy-5-nitro-phenyl)-[4-(4-trifluoromethyl-phenyl)-piperazin-1-yl]-methanone] | 16 nM
CS(=O)(=O)c1ccc(OCC2CCC2)c(C(=O)N2CCN(c3ccc(C(F)(F)F)cc3)CC2)c1 [compound 139] | 24 nM
CNS(=O)(=O)c1ccc(OC(C)C(F)(F)F)c(C(=O)N2CCN(c3ccc(C#N)c(F)c3F)CC2)c1 (racemic) [compound 558] | 29 nM
CC(C)Oc1ccc(S(C)(=O)=O)cc1C(=O)N1CCN(c2cc(F)c(S(=O)(=O)C3CC3)cc2F)CC1 [compound 595] | 49 nM
CNS(=O)(=O)c1ccc(OC(C)C(F)(F)F)c(C(=O)N2CCN(c3ccc(C(F)(F)F)cc3)CC2)c1 (racemic) [compound 554] | 19 nM
CC(C)Oc1ccc(S(C)(=O)=O)cc1C(=O)N1CCN(c2ccc(C(F)F)cc2F)CC1 [compound 400] | 23 nM
CC(C)COc1ccc([N+](=O)[O-])cc1C(=O)N1CCN(c2ccc(C(F)(F)F)cc2)CC1 [Example 70, (2-Isobutoxy-5-nitro-phenyl)-[4-(4-trifluoromethyl-phenyl)-piperazin-1-yl]-methanone] | 8 nM
CNS(=O)(=O)c1ccc(OCC2CC2)c(C(=O)N2CCN(c3ccc(C#N)cc3F)CC2)c1 [compound 509] | 30 nM
CC(C)Oc1ccc([N+](=O)[O-])cc1C(=O)N1CCN(c2ccc(C(F)(F)F)cc2)CC1 [Example 62, (2-Isopropoxy-5-nitro-phenyl)-[4-(4-trifluoromethyl-phenyl)-piperazin-1-yl]-methanone] | 17 nM
CS(=O)(=O)c1ccc(OCC2CCC2)c(C(=O)N2CCN(c3cc(F)c(C#N)cc3F)CC2)c1 [compound 146] | 19 nM
CCC(C)Oc1ccc([N+](=O)[O-])cc1C(=O)N1CCN(c2ccc(C(F)(F)F)cc2)CC1 (racemic) [Example 78, Rac-(2-sec-Butoxy-5-nitro-phenyl)-[4-(4-trifluoromethyl-phenyl)-piperazin-1-yl]-methanone] | 12 nM
CC(C)COc1ccc(S(C)(=O)=O)cc1C(=O)N1CCN(c2ccc(S(=O)(=O)C3CC3)cc2F)CC1 [compound 578] | 41 nM
CNS(=O)(=O)c1ccc(OCC(C)C)c(C(=O)N2CCN(c3ccc(C(C)=O)cc3F)CC2)c1 [compound 514] | 45 nM
CS(=O)(=O)c1ccc(OC2CCCC2)c(C(=O)N2CCN(c3cc(F)c(C#N)cc3F)CC2)c1 [compound 135] | 41 nM
CC(C)(C)COc1ccc(S(C)(=O)=O)cc1C(=O)N1CCN(c2ccc(C#N)cc2F)CC1 [compound 291] | 13 nM
CS(=O)(=O)c1ccc(OCC2CC2)c(C(=O)N2CCN(c3cc(F)c(C#N)c(F)c3)CC2)c1 [compound 170] | 31 nM
CS(=O)(=O)c1ccc(OC2CCCC2)c(C(=O)N2CCN(c3ccc(S(=O)(=O)C(F)(F)F)cc3)CC2)c1 [Example 329, (2-Cyclopentyloxy-5-methanesulfonyl-phenyl)-[4-(4-trifluoromethanesulfonyl-phenyl)-piperazin-1-yl]-methanone] | 16 nM
CNS(=O)(=O)c1ccc(OCC(C)C)c(C(=O)N2CCN(c3ccc(C#N)c(F)c3)CC2)c1 [compound 475] | 40 nM
CS(=O)(=O)c1ccc(OCC2CCC2)c(C(=O)N2CCN(c3ccc(C#N)cc3)CC2)c1 [compound 136] | 27 nM
CC(C)(C)COc1ccc(S(C)(=O)=O)cc1C(=O)N1CCN(c2ccc(C(F)(F)F)cc2F)CC1 [compound 294] | 37 nM

Compound | IC50
CS(=O)(=O)c1ccc(OCCC(F)(F)F)c(C(=O)N2CCN(c3ccc(C(F)(F)F)cc3F)CC2)c1 [compound 117] | 44 nM
CC(Oc1ccc(S(C)(=O)=O)cc1C(=O)N1CCN(c2ccc(C(F)(F)F)cc2F)CC1)C(F)(F)F (single isomer, unassigned) [compound 466] | 26 nM
CCC(C)Oc1ccc(S(C)(=O)=O)cc1C(=O)N1CCN(c2ccc(C#N)c(F)c2)CC1 (racemic) [compound 322] | 28 nM
O=C(c1cc([N+](=O)[O-])ccc1OCC(F)(F)F)N1CCN(c2ccc(C(F)(F)F)cc2)CC1 [Example 84, [5-Nitro-2-(2,2,2-trifluoro-ethoxy)-phenyl]-[4-(4-trifluoromethyl-phenyl)-piperazin-1-yl]-methanone] | 40 nM
CNS(=O)(=O)c1ccc(OCC(F)(F)F)c(C(=O)N2CCN(c3ccc(C(F)(F)F)cc3)CC2)c1 [compound 537] | 30 nM
O=C(c1cc([N+](=O)[O-])ccc1OCC1CCC1)N1CCN(c2ccc(C(F)(F)F)cc2)CC1 [Example 64, (2-Cyclobutylmethoxy-5-nitro-phenyl)-[4-(4-trifluoromethyl-phenyl)-piperazin-1-yl]-methanone] | 25 nM
CS(=O)(=O)c1ccc(OC2CCCCC2)c(C(=O)N2CCN(c3ccc(C#N)c(F)c3)CC2)c1 [compound 284] | 10 nM
CNS(=O)(=O)c1ccc(OCC(C)(C)C)c(C(=O)N2CCN(c3ccc(C#N)cc3F)CC2)c1 [compound 505] | 24 nM
CS(=O)(=O)c1ccc(OCC2CCC2)c(C(=O)N2CCN(c3ccc(C(F)(F)F)cc3C#N)CC2)c1 [compound 144] | 45 nM
CC(C)(C)Oc1ccc(S(C)(=O)=O)cc1C(=O)N1CCN(c2cc(F)c(S(C)(=O)=O)cc2F)CC1 [compound 249] | 32 nM
CS(=O)(=O)c1ccc(OC2CCCC2)c(C(=O)N2CCN(c3ccc(C#N)c(F)c3F)CC2)c1 [compound 131] | 30 nM
CC(C)(C)COc1ccc(S(C)(=O)=O)cc1C(=O)N1CCN(c2ccc(C#N)cc2)CC1 [compound 290] | 17 nM
CC(Oc1ccc(S(C)(=O)=O)cc1C(=O)N1CCN(c2ccc(C#N)c(F)c2F)CC1)C(F)(F)F (racemic) [compound 207] | 23 nM
CS(=O)(=O)c1ccc(OCC(F)(F)C(F)F)c(C(=O)N2CCN(c3ccc(C(F)(F)F)cc3F)CC2)c1 [compound 212] | 29 nM
CC(C)(C)Oc1ccc(S(C)(=O)=O)cc1C(=O)N1CCN(c2ccc(C#N)c(F)c2F)CC1 [compound 196] | 41 nM
CC(Oc1ccc(S(C)(=O)=O)cc1C(=O)N1CCN(c2ccc(C(F)(F)F)cn2)CC1)C(F)(F)F (racemic) [compound 408] | 37 nM
CCC(C)Oc1ccc(S(C)(=O)=O)cc1C(=O)N1CCN(c2ccc(C(C)=O)cc2F)CC1 (racemic) [compound 319] | 31 nM
CC(C)Oc1ccc(S(C)(=O)=O)cc1C(=O)N1CCN(c2ccc(C(F)(F)F)cc2C#N)CC1 [compound 363] | 8 nM
CS(=O)(=O)c1ccc(OC(CF)CF)c(C(=O)N2CCN(c3ccc(C(F)(F)F)cc3C#N)CC2)c1 [compound 194] | 47 nM
CCS(=O)(=O)c1ccc(N2CCN(C(=O)c3cc(S(C)(=O)=O)ccc3OCC(C)C)CC2)c(F)c1 [compound 566] | 30 nM
CC(Oc1ccc(S(C)(=O)=O)cc1C(=O)N1CCN(c2ccc(C#N)c(F)c2)CC1)C(F)(F)F (racemic) [compound 300] | 16 nM
CC(Oc1ccc(S(C)(=O)=O)cc1C(=O)N1CCN(c2ccc(Cl)cc2C#N)CC1)C(F)(F)F (racemic) [compound 256] | 32 nM

Source: US7605163B2, “Benzoyl-piperazine derivatives” (Hoffmann-La Roche Inc., priority 2003, dated 2009)
